Measurements from patent US9440957B2, “Compounds and compositions for modulating EGFR Activity” (Novartis AG, priority 2012, dated 2016).
Like-named read-outs stand apart in the source and are kept apart here.

Tests used:
EGFR(L858R/T790M) = biological target: T1, EGFR(L858R/T790M) (Homo sapiens, UniProt P00533, L858R/T790M); experiment: EGFR biochemical assay (HTRF), IC50 determinations
T1 construct: purchased from Carna (GST-a.a. 669-1210)
Method in brief: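 Two formats were run: compound preincubated at room temperature with enzyme and biotin-TK peptide before ATP starts the reaction, or no preincubation with enzyme added last. Reactions ran 60 min at room temperature and were stopped with EDTA. Phosphopeptide was read by HTRF (PT66K/SAXL, 1 h).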

H1975 (EGFR L858/T790M) = H1975 (EGFR L858/T790M) (Homo sapiens, UniProt P00533, L858R/T790M); experiment: EGFR target modulation in H1975 cell line (phospho-EGFR Y1173 ELISA); assay type: cell-based
H1975 (EGFR L858/T790M), sequence (P00533 25-1210 T790M/L858R): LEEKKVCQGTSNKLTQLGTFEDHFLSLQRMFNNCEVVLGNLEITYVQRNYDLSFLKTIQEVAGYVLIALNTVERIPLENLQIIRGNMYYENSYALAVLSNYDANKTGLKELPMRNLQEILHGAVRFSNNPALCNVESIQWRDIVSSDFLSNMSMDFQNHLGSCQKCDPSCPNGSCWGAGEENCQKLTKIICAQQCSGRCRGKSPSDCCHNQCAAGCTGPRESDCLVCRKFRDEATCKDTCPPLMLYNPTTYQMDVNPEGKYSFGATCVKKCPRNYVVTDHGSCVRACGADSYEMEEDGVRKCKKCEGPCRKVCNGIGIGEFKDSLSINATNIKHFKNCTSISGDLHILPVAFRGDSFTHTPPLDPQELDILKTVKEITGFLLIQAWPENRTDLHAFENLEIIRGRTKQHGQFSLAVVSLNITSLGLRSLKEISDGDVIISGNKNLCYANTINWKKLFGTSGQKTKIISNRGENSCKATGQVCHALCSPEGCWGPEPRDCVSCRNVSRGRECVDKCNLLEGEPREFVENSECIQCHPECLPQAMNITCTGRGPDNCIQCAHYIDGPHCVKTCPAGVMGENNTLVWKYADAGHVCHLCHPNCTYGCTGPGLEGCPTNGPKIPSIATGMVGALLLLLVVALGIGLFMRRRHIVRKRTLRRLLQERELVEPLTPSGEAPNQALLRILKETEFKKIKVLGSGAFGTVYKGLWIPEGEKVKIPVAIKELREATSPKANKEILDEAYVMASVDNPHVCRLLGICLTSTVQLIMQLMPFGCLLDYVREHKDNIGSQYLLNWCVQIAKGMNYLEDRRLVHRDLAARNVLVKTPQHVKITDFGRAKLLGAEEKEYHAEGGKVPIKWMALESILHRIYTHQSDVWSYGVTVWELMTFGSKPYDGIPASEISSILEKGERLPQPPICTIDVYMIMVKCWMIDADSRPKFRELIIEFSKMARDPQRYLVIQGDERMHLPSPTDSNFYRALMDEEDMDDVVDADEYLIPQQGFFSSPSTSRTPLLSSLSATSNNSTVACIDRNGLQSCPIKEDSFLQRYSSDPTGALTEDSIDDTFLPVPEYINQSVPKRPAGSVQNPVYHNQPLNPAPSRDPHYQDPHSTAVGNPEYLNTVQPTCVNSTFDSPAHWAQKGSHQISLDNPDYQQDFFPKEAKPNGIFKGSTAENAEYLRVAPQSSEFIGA
Method in brief: (§1)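 pY1173 was measured by sandwich ELISA with anti-EGFR capture and chemiluminescent read-out. Before lysis, each cell line (HCC827, H1975, H3255) was treated with compound for 3 hours. IC50 derived by non-linear fit, normalised to EGF-stimulated controls as maximum.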

H3255 (EGFR L858R) = H3255 (EGFR L858R) (Homo sapiens, UniProt P00533, L858R); experiment: EGFR target modulation in H3255 cell line (phospho-EGFR Y1173 ELISA); assay type: cell-based
Method in brief: as §1

HaCaT (EGFR WT) = HaCaT (EGFR WT) (Homo sapiens, UniProt P00533); experiment: EGFR target modulation in HaCaT (EGFR-WT) cell line (phospho-EGFR Y1173 ELISA); assay type: cell-based; conditions: value in parentheses
Experimental: EGFR Target Modulation in HaCaT (EGFR-WT) Cell Line Tissue Culture. […] The serial diluted compounds were transferred to the plate containing cells by using a 50 nl Pin Head device (Perkin Elmer) and the cells were placed back in the incubator for 3 hours. […] Phospho-EGFR ([…]) ELISA. Solid white high-binding ELISA plates (Greiner #781074) were coated with 5 ug/ml anti-EGFR capture antibody (R&D Systems #AF231) overnight in 50 mM carbonate/bicarbonate pH 9.5 buffer. […] Wash steps were carried out with a Bio-Tek ELx405 SelectTM using 4 cycles of 100 ul TBS-T (20 mM Tris, 137 mM NaCl, 0.05% Tween-20) per well. […] Lysis was allowed to occur for 20 minutes on ice. A 25 ul aliquot was added to each well of the blocked ELISA plate and incubated overnight at 4° C. with gentle shaking. […] After washing, 1:2,000 anti-rabbit-HRP (Cell Signaling #7074) in 0.2% BSA/TBS-T was added and incubated for 1 hour at room temperature. Chemiluminescent detection was carried out with SuperSignal ELISA Pico substrate (ThermoScientific #37069). Signal was read on EnVision plate reader using built-in UltraLUM setting. Data Analysis. Control cells treated with EGF were set to 100% maximum response. […] With these parameters, the IC50's for each compound in each cell line was calculated using non-linear curve fitting analysis.

[1] = biological target: human EGFR WT (NIH/3T3 cells, EGF-induced) (Homo sapiens, UniProt P00533); experiment: EGFR target modulation in engineered NIH/3T3 cell lines (phospho-EGFR Y1068 AlphaLISA), EGFR WT; assay type: cell-based; conditions: engineered NIH/3T3 cells, read-out: NIH3T3 IC50 (μM) EGFR (WT)
Method in brief: (§2)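 Read-out is phospho-Y1068 AlphaLISA on cell lysates, with anti-total EGFR at 1 nM final equilibrated 1 h at room temperature. Cells were dosed 3 h with a 12-point 1:3 series starting from a 10 μM stock. Only the WT line received 50 ng/ml EGF for 5 min.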

[2] = biological target: human EGFR L858R (NIH/3T3 cells) (Homo sapiens, UniProt P00533, L858R); experiment: EGFR target modulation in engineered NIH/3T3 cell lines (phospho-EGFR Y1068 AlphaLISA), EGFR L858R; assay type: cell-based; conditions: engineered NIH/3T3 cells, read-out: NIH3T3 IC50 (μM) EGFR (L858R)
Method in brief: as §2

[3] = biological target: human EGFR L858R/T790M (NIH/3T3 cells) (Homo sapiens, UniProt P00533, L858R/T790M); experiment: EGFR target modulation in engineered NIH/3T3 cell lines (phospho-EGFR Y1068 AlphaLISA), EGFR L858R/T790M; assay type: cell-based; conditions: engineered NIH/3T3 cells, read-out: NIH3T3 IC50 (μM) EGFR (L858R/T790M)
human EGFR L858R/T790M (NIH/3T3 cells), sequence (P00533 25-1210 T790M/L858R): as above
Method in brief: as §2

HCC827 (Del E746-A750) = HCC827 (Del E746-A750) (Homo sapiens, UniProt P00533, DEL746-750); experiment: EGFR target modulation in HCC827 cell line (phospho-EGFR Y1173 ELISA); assay type: cell-based
HCC827 (Del E746-A750), sequence (P00533 with tags, fused parts or gaps DEL746-750): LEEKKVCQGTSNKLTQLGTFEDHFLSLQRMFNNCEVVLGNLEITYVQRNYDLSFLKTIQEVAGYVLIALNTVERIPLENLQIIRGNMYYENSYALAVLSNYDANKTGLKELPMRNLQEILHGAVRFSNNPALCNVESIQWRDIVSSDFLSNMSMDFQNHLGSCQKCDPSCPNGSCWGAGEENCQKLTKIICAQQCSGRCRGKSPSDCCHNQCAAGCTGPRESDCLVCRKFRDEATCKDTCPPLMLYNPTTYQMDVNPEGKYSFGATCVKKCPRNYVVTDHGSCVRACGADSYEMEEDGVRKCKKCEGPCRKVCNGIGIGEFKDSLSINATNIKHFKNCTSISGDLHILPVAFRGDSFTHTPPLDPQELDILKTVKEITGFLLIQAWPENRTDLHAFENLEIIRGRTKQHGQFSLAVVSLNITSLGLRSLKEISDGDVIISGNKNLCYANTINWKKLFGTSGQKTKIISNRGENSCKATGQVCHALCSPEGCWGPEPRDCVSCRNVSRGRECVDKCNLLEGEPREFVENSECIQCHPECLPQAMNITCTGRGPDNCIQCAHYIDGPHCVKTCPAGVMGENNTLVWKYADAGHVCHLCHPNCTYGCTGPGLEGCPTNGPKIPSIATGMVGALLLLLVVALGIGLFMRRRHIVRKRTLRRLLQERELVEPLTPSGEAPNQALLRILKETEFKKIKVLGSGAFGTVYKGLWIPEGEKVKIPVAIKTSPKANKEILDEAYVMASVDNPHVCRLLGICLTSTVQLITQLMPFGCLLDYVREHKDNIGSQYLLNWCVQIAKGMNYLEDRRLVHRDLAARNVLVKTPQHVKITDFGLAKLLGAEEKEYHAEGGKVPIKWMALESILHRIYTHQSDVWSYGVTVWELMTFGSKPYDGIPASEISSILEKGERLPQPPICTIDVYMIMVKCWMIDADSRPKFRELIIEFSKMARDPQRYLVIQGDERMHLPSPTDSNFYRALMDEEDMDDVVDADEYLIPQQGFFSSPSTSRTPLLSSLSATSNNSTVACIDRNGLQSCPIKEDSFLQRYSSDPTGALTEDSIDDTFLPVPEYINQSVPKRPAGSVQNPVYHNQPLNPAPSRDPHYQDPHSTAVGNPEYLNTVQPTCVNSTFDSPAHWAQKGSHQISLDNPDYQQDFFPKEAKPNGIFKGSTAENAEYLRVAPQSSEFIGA
Method in brief: as §1

HEKn (EGFR WT) = HEKn (EGFR WT) (Homo sapiens, UniProt P00533); experiment: EGFR target modulation in HEKn (EGFR-WT) cell line (phospho-EGFR Y1173 ELISA); assay type: cell-based; conditions: value outside parentheses
Method in brief: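 Read-out was Y1173 phosphorylation, measured by chemiluminescent ELISA with anti-EGFR capture of lysates. HEKn keratinocytes (wild-type EGFR) were treated with compound for 3 h.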

[4] = EGFR (L858R/T790M) with 90 min pre-incubation, read-out: IC50 (μM) Column B
[5] = EGFR (L858R/T790M) with no pre-incubation, read-out: IC50 (μM) Column A

T1 sequence (P00533 669-1210 T790M/L858R): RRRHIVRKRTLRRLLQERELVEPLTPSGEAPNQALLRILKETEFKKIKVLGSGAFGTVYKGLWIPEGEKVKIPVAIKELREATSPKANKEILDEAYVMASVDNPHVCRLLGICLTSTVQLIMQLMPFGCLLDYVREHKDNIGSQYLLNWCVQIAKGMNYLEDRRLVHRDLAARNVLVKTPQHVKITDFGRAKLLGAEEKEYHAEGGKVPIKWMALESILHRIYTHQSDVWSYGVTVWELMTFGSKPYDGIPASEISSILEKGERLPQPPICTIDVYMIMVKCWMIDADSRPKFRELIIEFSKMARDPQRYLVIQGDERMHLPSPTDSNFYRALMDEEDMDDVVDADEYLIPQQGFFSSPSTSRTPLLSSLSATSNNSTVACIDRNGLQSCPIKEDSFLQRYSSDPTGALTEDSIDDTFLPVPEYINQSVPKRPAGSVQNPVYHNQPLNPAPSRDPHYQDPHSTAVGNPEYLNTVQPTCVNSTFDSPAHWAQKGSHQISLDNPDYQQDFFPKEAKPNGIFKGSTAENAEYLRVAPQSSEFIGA

Compound | IC50 (EGFR(L858R/T790M); [4]) | IC50 (EGFR(L858R/T790M); [5]) | IC50 (H1975 (EGFR L858/T790M)) | IC50 (H3255 (EGFR L858R)) | IC50 (HaCaT (EGFR WT)) | IC50 [1] | IC50 [2] | IC50 [3] | IC50 (HCC827 (Del E746-A750)) | IC50 (HEKn (EGFR WT))
CN(C)C/C=C/C(=O)N1CCCCC(n2c(NC(=O)c3ccnc(P(C)(C)=O)c3)nc3cccc(Cl)c32)C1 (single isomer, unassigned) [Example 21-10A] | 0.572 µM | 6.05 µM | > 10000 nM | 1540 nM | > 10000 nM |  |  |  |  | 
Cc1cc(C(=O)Nc2nc3cccc(Cl)c3n2[C@@H]2CCCCN(C(=O)/C=C/CN(C3CC3)C3CC3)C2)ccn1 [Example 16, (R,E)-N-(7-chloro-1-(1-(4-(dicyclopropylamino)but-2-enoyl)azepan-3-yl)-1H-benzo[d]imidazol-2-yl)-2-methylisonicotinamide] | 0.005 µM | 0.045 µM | 58 nM | 60 nM | 1100 nM |  |  |  |  | 
C=CC(=O)N1CCN(C(C)=O)CC(n2c(NC(=O)c3ccnc(C)c3)nc3cccc(Cl)c32)C1 (stereo not shown) [Example 14, N-(1-(1-acetyl-4-acryloyl-1,4-diazepan-6-yl)-7-chloro-1H-benzo[d]imidazol-2-yl)-2-methylisonicotinamide] | 0.009 µM | 0.16 µM | 27 nM | 71 nM | 2060 nM |  |  |  |  | 
Cc1cc(C(=O)Nc2nc3cccc(Cl)c3n2[C@@H]2CCCCN(C(=O)/C=C/CN3CC[C@@H](O)C3)C2)ccn1 [Example 3-6] | < 0.001 µM | 0.01 µM | 25 nM | 22 nM |  | 0.114 µM | 0.018 µM | 0.032 µM | 18 nM | 1250 nM
Cc1cc(C(=O)Nc2nc3cccc(Cl)c3n2[C@@H]2CCCCN(C(=O)/C=C/CN3CC(F)(F)C3)C2)ccn1 [Example 3-15] | 0.005 µM | 0.084 µM | 86 nM | 90 nM |  | 7.3 µM | 0.111 µM | 0.148 µM | 40 nM | 4500 nM
CO[C@@H]1CCN(C/C=C/C(=O)N2CCCC[C@@H](n3c(NC(=O)c4ccnc(C)c4)nc4cccc(Cl)c43)C2)C1 [Example 3-4] | < 0.001 µM | 0.005 µM | 6 nM | 7 nM |  | 0.058 µM | 0.003 µM | 0.005 µM | < 1 nM | 320 nM
Cc1cc(C(=O)Nc2nc3cccc(Cl)c3n2[C@@H]2CCCCN(C(=O)/C=C/CN3CCC(F)(F)C3)C2)ccn1 [Example 3-3] | 0.011 µM | 0.156 µM | 249 nM | 320 nM |  | > 7.6 µM | 0.157 µM | 0.174 µM | 108 nM | 6400 nM

Results, then the compound that gave them:

IC50 (EGFR(L858R/T790M); [4]) | IC50 (EGFR(L858R/T790M); [5]) | IC50 (H1975 (EGFR L858/T790M)) | IC50 (H3255 (EGFR L858R)) | IC50 (HaCaT (EGFR WT)) | IC50 [1] | IC50 [2] | IC50 [3] | IC50 (HCC827 (Del E746-A750)) | IC50 (HEKn (EGFR WT)) | Compound
< 0.001 µM | 0.003 µM | 2 nM | 3 nM | 47 nM |  |  |  |  |  | Cc1cc(C(=O)Nc2nc3cccc(Cl)c3n2[C@@H]2CCCCN(C(=O)/C=C/CNC3CC3)C2)ccn1 [Example 17-190]
< 0.001 µM | 0.003 µM | 2 nM | 2 nM | 37 nM |  |  |  |  |  | Cc1cc(C(=O)Nc2nc3cccc(Cl)c3n2[C@@H]2CCCCN(C(=O)/C=C/CNC3(C)CC3)C2)ccn1 [Example 17-192]
0.003 µM | 0.064 µM | 10 nM | 147 nM |  | 4.4 µM | 0.052 µM | 0.008 µM | 30 nM | > 10000 nM | C=CC(=O)N1CCCC[C@@H](n2c(NC(=O)c3cccc(C(F)(F)F)c3)nc3cccc(C(F)(F)F)c32)C1 [Example 17-12]
0.004 µM | 0.115 µM | 22 nM | 199 nM |  | > 10 µM | 0.174 µM | 0.017 µM | 291 nM | > 10000 nM | C=CC(=O)N1CCC[C@@H](n2c(NC(=O)c3cccc(C(F)(F)F)c3)nc3cc(COCC)ccc32)C1 [Example 17-123]
< 0.001 µM | 0.001 µM | < 1 nM | 2 nM |  | 0.024 µM | < 0.001 µM | < 0.001 µM | < 1 nM | 65 nM | C=CC(=O)N1CCCC[C@@H](n2c(NC(=O)c3ccnc(C)c3)nc3cc(CN4CCCC4)cc(C)c32)C1 [Example 17-126]
0.008 µM | 0.062 µM | 10 nM | 118 nM |  | 5 µM | 0.051 µM | 0.008 µM | 71 nM | > 6900 nM | C=CC(=O)N1CCC[C@@H](n2c(NC(=O)c3cccc(C(F)(F)F)c3)nc3cc(CN(C)C(C)=O)ccc32)C1 [Example 17-119]
0.002 µM | 0.038 µM | 9 nM | 83 nM |  | > 10 µM | 0.124 µM | 0.007 µM | 153 nM | > 10000 nM | C=CC(=O)N1CCC[C@@H](n2c(NC(=O)c3cccc(C(F)(F)F)c3)nc3cccc(C)c32)C1 [Example 17-106]
0.004 µM | 0.036 µM | 13 nM | 290 nM |  | 6.4 µM | 0.05 µM | 0.006 µM | 243 nM | > 10000 nM | C=CC(=O)N1CCC[C@@H](n2c(NC(=O)c3cccc(C(F)(F)F)c3)nc3cc(CN4CCCC4)ccc32)C1 [Example 17-117]
0.003 µM | 0.04 µM | 15 nM | 155 nM |  | > 10 µM | 0.04 µM | 0.006 µM | 135 nM | > 10000 nM | C=CC(=O)N1CCC[C@@H](n2c(NC(=O)c3cccc(C(F)(F)F)c3)nc3cc(CN4CCOCC4)ccc32)C1 [Example 17-112]
